Experimental data reported in article PMC6225302, “Depsidone Derivatives and a Cyclopeptide Produced by Marine Fungus Aspergillus unguis under Chemical Induction and by Its Plasma Induced Mutant” (Molecules : A Journal of Synthetic Chemistry and Natural …, 2018).
Values after ≈ are worked out from the molar mass of the structure shown. Where two headings read alike, the source gives them in different places.

Experiments:
[1] = test system: methicillin-resistant Staphylococcus aureus (A7983, clinical isolate); test: Antimicrobial paper disc diffusion method; format: cell-based; settings: MRSA; for zone of inhibition at 10 µg/disc: Staphylococcus aureus; for Zone of Inhibition: 10 μg per disc, paper disc diameter 6.0 mm, mean ± SD of three replicates
Method: (§1) Preliminary antimicrobial tests for compounds 1‒10 were carried out against pathogenetic strains, including Pseudomonas aeruginosa (ATCC 9027), methicillin-resistant Staphylococcus aureus (A7983, clinical isolate donated by Zhijun Yu in Dalian Friendship Hospital, Dalian, China), Vibrio parahemolyticus (ZouB, aquatic pathogen donated by Chongqing Wen in College of Fishery, Guangdong Ocean University, Zhanjiang, China), and Candida albicans (ATCC 10231) using the disc diffusion method. Muller Hinton agar (MHA) and Sabouraud agar (SA) were used for antibacterial and antifungal tests, respectively. For each sample, 10 μg was added onto paper disc (diameter of 6 mm) for tests. The minimum inhibition concentrations (MICs) of the compounds were tested using microdilution methods. Ampicillin and ketoconazole were taken as positive controls for antibacterial and antifungal tests, respectively. Solvents (MeOH and DMSO) were used as blank controls.

[2] = test system: Candida albicans (ATCC 10231); test: Antimicrobial paper disc diffusion method; format: cell-based; settings: C. albicans, 10 μg per disc, paper disc diameter 6.0 mm, mean ± SD of three replicates; for zone of inhibition at 10 µg/disc: Candida albicans, ATCC10231
Method: as §1

[3] = test system: Vibrio parahemolyticus (ZouB); test: Antimicrobial paper disc diffusion method; format: cell-based; settings: V. parahemolyticus, incomplete inhibition, 10 μg per disc, paper disc diameter 6.0 mm, mean ± SD of three replicates; for zone of inhibition at 10 µg/disc: Vibrio
Method: as §1

[4] = test system: Pseudomonas aeruginosa (ATCC 9027); test: Antimicrobial paper disc diffusion method; format: cell-based; settings: P. aeruginosa, 10 μg per disc, paper disc diameter 6.0 mm, mean ± SD of three replicates; for zone of inhibition at 10 µg/disc: Pseudomonas aeruginosa, ATCC9027
Method: as §1

[5] = test system: methicillin-resistant Staphylococcus aureus (A7983, clinical isolate); test: Antimicrobial microdilution method (MIC); format: cell-based; settings: MRSA
Method: as §1

[6] = test system: Pseudomonas aeruginosa (ATCC 9027); test: Antimicrobial microdilution method (MIC); format: cell-based; settings: ATCC9027, P. aeruginosa
Method: as §1

[7] = test system: Vibrio parahemolyticus (ZouB); test: microbe, parasite or virus in culture; format: cell-based; settings: Vibrio
Method: as §1

[8] = Brine shrimp larva lethality test; format: in vivo, Artemia salina; settings: Artemia salina (brine shrimp) larvae, 24 h at 28 °C, read-out: Larvicidal Activity (LC50)
Method: Compounds 1‒10 were evaluated for larvicidality using the brine shrimp (Artemia salina) larva lethality test. 0.15 g of frozen eggs of brine shrimp larva (purchased from Aijia Aquarium Co., Zhanjiang, China) were activated at room temperature for 12 h. After activation, eggs were added to 1 L of artificial seawater (3% sea salt), ventilated with air for 420 mL/min, then kept at a brightness at 1000 lux and incubated at 28 °C for 24 h. After incubation, the larvae were induced to the top of the separating funnel by phototaxis, and the dead ones on bottom were discharged. Then, in each well of the 96-well plate, 1 μL of test compounds (in DMSO) with different concentrations and 99 μL of seawater containing 20‒30 live larvae were added. After incubation under light at 28 °C for 24 h, recorded the numbers of dead larvae. Finally, 10 μL of the Lucus reagent were added into each well and the total number of brine shrimp larva in the well were counted. DMSO and Hg(NO3)2 were used as blank control and positive control, respectively. Lethality rate (%)=(lethality of treatment−lethality of blank control)/survival rate of blank control×100%
The brine shrimp larva LC50 value is the concentration required to kill 50% of the larvae. Likewise, the LC50 was calculated using Origin 8.0 plotting and cubic polynomial regression.

[9] = test system: Candida albicans (ATCC 10231); test: Antimicrobial microdilution method (MIC); format: cell-based; settings: ATCC10231, C. albicans
Method: as §1

[10] = molecular target: T1, Acetylcholinesterase (AChE, from electric eels) (Electrophorus electricus, UniProt O42275); test: AChE inhibition assay (modified Ellman's method); format: biochemical; settings: AChE Inhibitory Activity (IC50), 0.2 U/mL, 37 °C
T1 construct: purchased Sigma-Aldrich
Method: Acetylcholinesterase (AChE, from electric eels), acetythiocholine iodide (ATCh), 5,5-dithiobis-(2-nitrobenzoic acid) (DTNB), and bovine serum albumin (BSA, A1933) were purchased from Sigma-Aldrich. 100 mM PBS (pH = 7.4) was prepared with K2HPO4 and KH2PO4. In vitro AChE inhibitory activity was measured in 96-well plates using modified Ellman’s methods. […] Each well contained 1 μL of prepared sample, 49 μL of PBS, 10 μL of enzyme with a final concentration of 0.2 U/mL in BSA ([…] in PBS), and 20 μL of DTNB (5 mM in PBS). Then, the plates were preincubated at 37 °C for 10 min. Afterwards, 20 μL of ATCh (10 mM in PBS) was added into the well. After incubation at 37 °C for 20 min, the 96-well plates were read at 405 nm on the microplate reader, and the inhibition ratios to AChE were calculated using the following equation, where Asample blank stands for the absorbance of a well without enzyme, Asample stands for the absorbance of the treatment, Acontorl stands for the absorbance of the well without the sample, and Ablank stands for the absorbance of the well without the sample and enzyme. Donepezil was taken as a positive control. Inhibition of AChE (%)=[(Acontrol−Ablank)−(Asample−Asample blank)]/(Acontrol−Ablank)×100%
The inhibition rates and concentration logarithm (lnC) values were imported into the Origin 8.0 software (OriginLab Co., Ltd., Northampton, MA, USA). The cubic polynomial regression equation was used to calculate ln(IC50). Then, IC50 was calculated using Microsoft Excel.

[11] = DPPH free radical scavenging assay; settings: 0.16 mM DPPH, 30 min in darkness at room temperature
Method: The free radical scavenging potentials of compounds 1‒10 were evaluated in 96-well plates using the DPPH free radical scavenging assay described by Sharma and Bhat. A total of 100 μL of the reaction mixture was composed of 50 μL of 0.16 mM DPPH (Sigma-Aldrich, St. Louis, MO, USA) in methanol and 50 μL of the test compound (in DMSO) with different concentrations (Asample). The reaction mixture was incubated for 30 min in darkness at room temperature. Meanwhile, 50 μL of 0.16 mM DPPH with 50 μL of DMSO was used as control (Acontrol), 50 μL of methanol and 50 μL of different concentrations of the test compound in DMSO were used as the sample blanks (Asample blank), 50 μL methanol with 50 μL DMSO was used as the blank (Ablank), while vitamin C was taken as a positive control. The absorbance was measured at 517 nm on the microplate reader. Scavenging capacity (%)=[(Acontrol−Ablank)−(Asample−Asample blank)]/(Acontrol−Ablank)×100%
The EC50 value is the concentration required to scavenge 50% of DPPH radicals. Likewise, the EC50 was calculated using Origin 8.0 plotting and cubic polynomial regression.

[12] = live brine shrimp larvae in 96-well plate, other: immersion in seawater containing the compound

T1 sequence (O42275 24-633): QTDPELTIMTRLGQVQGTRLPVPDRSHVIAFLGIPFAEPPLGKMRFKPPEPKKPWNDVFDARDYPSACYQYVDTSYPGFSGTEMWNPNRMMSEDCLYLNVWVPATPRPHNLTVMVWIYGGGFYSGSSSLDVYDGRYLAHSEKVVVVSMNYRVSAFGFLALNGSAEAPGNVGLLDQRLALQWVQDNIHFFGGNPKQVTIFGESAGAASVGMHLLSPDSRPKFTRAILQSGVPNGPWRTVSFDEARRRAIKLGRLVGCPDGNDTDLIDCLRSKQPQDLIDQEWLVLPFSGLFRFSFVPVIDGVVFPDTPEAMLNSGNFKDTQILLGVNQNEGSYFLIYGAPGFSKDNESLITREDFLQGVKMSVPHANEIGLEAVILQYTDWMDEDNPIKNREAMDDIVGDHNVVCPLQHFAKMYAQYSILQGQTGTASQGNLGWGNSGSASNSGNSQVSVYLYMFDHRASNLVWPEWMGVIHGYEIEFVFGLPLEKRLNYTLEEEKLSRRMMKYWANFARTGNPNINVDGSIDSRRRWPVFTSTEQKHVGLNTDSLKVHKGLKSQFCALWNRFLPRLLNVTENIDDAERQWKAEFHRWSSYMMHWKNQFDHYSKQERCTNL

SMILES | zone of inhibition at 10 µg/disc [1] [mm] | Zone of Inhibition [2] | zone of inhibition at 10 µg/disc [3] [mm] | zone of inhibition at 10 µg/disc [4] [mm] | MIC [5] [µM] | MIC [6] [µM] | MIC ([7]; V. parahemolyticus, microdilution method, read-out: MIC) [µM] | LC50 at 24 h [8, 12] [µM] | zone of inhibition at 10 µg/disc [2] [mm] | MIC [9] [µM] | IC50 [10] [µM] | MIC [7] [µM] | EC50 [11] [µM] | Zone of Inhibition [1] | Zone of Inhibition [4] | LC50 at 24 h ([8]; in vivo, other: compound added to the seawater holding the larvae) [µM] | Zone of Inhibition [3]
CC1(C)S[C@@H]2[C@H](NC(=O)[C@H](N)c3ccccc3)C(=O)N2[C@H]1C(=O)O [Ampicillin, reference compound] | 14 | - | 9 | 12 ± 1.4 | 6.4 (≈ 2.24 µg/mL) | 1.6 (≈ 0.559 µg/mL) | 102 (≈ 35.8 µg/mL) |  |  |  |  |  |  |  |  |  | 
C/C=C(\C)c1cc(OC(=O)c2c(C)cc(O)cc2O)c(C)c(O)c1C(=O)O [Compound 1, (E)-6-(but-2-en-2-yl)-4-((2,4-dihydroxy-6-methylbenzoyl)oxy)-2-hydroxy-3-methylbenzoic acid] | 12 ± 1 |  | 9.3 ± 0.6 | 7.7 ± 0.6 | 51.2 (≈ 19.1 µg/mL) | 102 (≈ 38.1 µg/mL) |  | > 102 | 8.3 ± 0.6 | 12.8 (≈ 4.77 µg/mL) | > 102 | > 102 | > 102 |  |  |  | 
C/C=C(\C)c1cc(O)c(C)c(OC(=O)c2c(/C(C)=C/C)cc(O)c(C)c2O)c1 [Compound 2, agonodepside A] |  |  | 8 |  |  |  |  | > 102 | 6 ± 0.5 |  | > 102 | > 102 | > 102 | - | - |  | 
CC=C(C)c1c(Cl)c(O)c(C)c2c1Oc1c(Cl)c(O)c(Cl)c(C)c1C(=O)O2 [Compound 3, nornidulin] |  |  |  | 12.2 ± 0.3 |  | > 102 |  |  | 12.1 ± 0.2 | > 102 | > 102 |  | > 102 | - |  | 12.8 | -
CC=C(C)c1c(Cl)c(OC)c(C)c2c1Oc1c(Cl)c(O)c(Cl)c(C)c1C(=O)O2 [Compound 4, nidulin] | 9 |  |  | 9.5 ± 0.6 | 102 (≈ 45.4 µg/mL) | > 102 |  | 4.5 | 9 | > 102 | > 102 |  | > 102 |  |  |  | -
CC=C(C)c1c(Br)c(O)c(C)c2c1Oc1c(Br)c(O)cc(C)c1C(=O)O2 [Compound 5, aspergillusidone F] | 14.5 ± 0.6 |  | 6.3 ± 0.6 | 11.9 ± 0.2 | 25.6 (≈ 12.4 µg/mL) | 6.4 (≈ 3.1 µg/mL) |  | 12.8 | 7.5 ± 0.6 | > 102 | > 102 | > 102 | > 102 |  |  |  | 
